A short description of data set [1]: Particle size of spray-dried powder (Predictive Example). In kind it is physicochemical. To be noted: spray dried from 10% w/v feedstock. The protocol: A feedstock comprising 10% w/v frovatriptan succinate was fed to an in-house spray-dryer and was spray dried at the following settings: feed rate=2.1 g/min, inlet temp=130° C., outlet temp=66° C., atomisation=2-fluid nozzle, atomisation pressure=2 barg, atomisation air flow rate=21 l/min, drying air pressure=1 barg, drying air flow rate=5 l/sec. A respirable powder of less than 10 microns was produced which could then be administered to a patient in need of rapid relief from a migraine using the unit-dose dry powder inhaler of the invention.

In the next data set the test system is plasma proteins. As to conditions: cited from earlier work.
The conditions of data set [2]: preclinical pharmacology studies; cited from earlier work.
In the next data set the test system is 5-HT receptor. As to conditions: compared within the triptan class; cited from earlier work.
For data set [3] the following is noted: broad dose range of 1 to 100 mg; cited from earlier work.
Another data set has as its system migraine. To be noted: cited from earlier work.
The test system of data set [4] is cytochrome P450 isoenzymes. As to conditions: cited from earlier work.

As for `CN[C@@H]1CCc2[nH]c3ccc(C(N)=O)cc3c2C1` [frovatriptan succinate], the “particle size of respirable powder” value in data set [1] was “less than 10 microns”.

On to `CN[C@@H]1CCc2[nH]c3ccc(C(N)=O)cc3c2C1` [Frovatriptan], for which, in the data set on plasma proteins, the “binding to plasma proteins” value is listed as “only slightly bound”. Besides, the cerebro-selectivity result in data set [2] was “apparently cerebro-selective”. Further, the 5-HT potency result in the data set on 5-HT receptor is given as “highest 5-HT potency in the triptan class”. Besides, in data set [3], the tolerability result is “well-tolerated”. In the data set with migraine (compared with placebo), the response rates entry was “significantly higher response rates compared with placebo”. The headache recurrence rates result in the data set with migraine (compared within the triptan class) is listed as “lowest reported range of headache recurrence rates in the triptan class”. The “inhibiting or inducing effects on cytochrome P450 isoenzymes” value in data set [4] is “no inhibiting or inducing effects”.
